Data: publication PMC10674446, “Synthesis and Structural Characterization of Novel Dimers of Dipyridothiazine as Promising Antiproliferative Agents” (Molecules, 2023)
Read-outs that look alike come from different tables or passages of the source.

Experiments:
MCF7 breast cancer = experiment: MTT cell viability assay, MCF7; format: cell-based, human; conditions: for Selectivity Index (SI), MCF-7: SI = IC50 L6 / IC50 MCF-7; for IC50: mean ± SD, n = 3, read-out: Anticancer Activity IC50, MCF-7
Experimental: (§1) MCF7, SW480 and normal L6 muscle cells were bought from the ATCC company, USA [34]. MCF7 and SW480 adenocarcinoma cell lines were cultured, respectively, using Dulbecco’s Modified Eagle Medium (DMEM with 4.5 g/L glucose; HIMEDIA, Mumbai, India) supplemented with 100 U/mL penicillin, 100 µg/mL of streptomycin and 10% fetal bovine serum (FBS; Cat No. FBSEU500; Tico Europe, Amstelveen, The Netherlands) under standard conditions until the desired confluency was reached. Once the desired cell confluency of 70–80% was observed, the cells were sub-cultured through trypsinization, and the cell count was calculated prior to seeding in the 96-well microplate. Similarly, L6 rat myoblasts were cultured accordingly as normal cell lines to compare against MCF7 and SW480 cell lines during the MTT cell viability assay.
(§2) Cells were seeded in a 96-well microplate at a density of 1 × 10^4 cells per well and were allowed to adhere to the wells overnight. […] The cells were exposed to the tested substances at concentrations ranging from 50, 25, 10, 5 and 1 μM. The treatment was conducted over three periods of 24 h, 48 h and 72 h, respectively. […] Lastly, the spent MTT medium was removed and DMSO was added to the wells, where the purple formazan crystals were solubilized, and the intensity of the purple hue was spectrophotometrically measured at 570 nm.
(§3) All values were represented as means ± standard deviations (n = 3). […] The IC50 values were further subjected to one-way ANOVA analysis along with the post hoc test to determine the statistical significance between the treatment groups and the negative control (untreated cells).

normal L6 rat myoblasts = experiment: MTT cell viability assay, normal L6 cells; format: cell-based; conditions: mean ± SD, n = 3, read-out: Anticancer Activity IC50, L6
Experimental: as §1
(§4) Cells were seeded in a 96-well microplate at a density of 1 × 10^4 cells per well and were allowed to adhere to the wells overnight. Subsequently, the cells were treated with varying concentrations of 12 compounds (1a,b,c–4a,b,c) along with doxorubicin as the positive control. The cells were exposed to the tested substances at concentrations ranging from 50, 25, 10, 5 and 1 μM. The treatment was conducted over three periods of 24 h, 48 h and 72 h, respectively. After the treatment period, thiazolyl blue tetrazolium bromide (MTT) solution was added to each well at a concentration of 0.5 mg/mL and incubated for 3 h in a 37 °C incubator supplemented with 5% CO2. Lastly, the spent MTT medium was removed and DMSO was added to the wells, where the purple formazan crystals were solubilized, and the intensity of the purple hue was spectrophotometrically measured at 570 nm.
(§5) All values were represented as means ± standard deviations (n = 3). The data were statistically analyzed using GraphPad Prism 10.1.0, where the IC50 values of each compound treated on different cell lines at different time points were obtained by extrapolating the logarithmic dose–response curve. The IC50 values were further subjected to one-way ANOVA analysis along with the post hoc test to determine the statistical significance between the treatment groups and the negative control (untreated cells).

SW480 colon cancer = experiment: MTT cell viability assay, SW480; format: cell-based, human; conditions: for IC50: mean ± SD, n = 3, read-out: Anticancer Activity IC50, SW480; for Selectivity Index (SI), SW480: SI = IC50 L6 / IC50 SW480
Experimental: as §1, §2, §3

[1] = tested on: MCF7 and SW480 cancer cells; experiment: MTT cell viability assay, both cancer cell lines; format: cell-based, human; conditions: breast cancer cell line MCF7 versus colon cancer cell line SW480
Experimental: as §1, §4, §5

[2] = 72 h treatment period, NA = IC50 beyond the tested concentration range (1-50 µM)
[3] = Homo sapiens, MCF7, 24 h treatment period
[4] = Homo sapiens, MCF7, 48 h treatment period
[5] = Homo sapiens, MCF7, 72 h treatment period, NA = IC50 beyond the tested concentration range (1-50 µM)
[6] = Rattus norvegicus, Myoblast, 24 h treatment period
[7] = Rattus norvegicus, Myoblast, 48 h treatment period
[8] = Rattus norvegicus, Myoblast, 72 h treatment period
[9] = Homo sapiens, SW480, 24 h treatment period
[10] = Homo sapiens, SW480, 48 h treatment period
[11] = Homo sapiens, SW480, 72 h treatment period

Molecule | Selectivity Index (SI), MCF-7 (MCF7 breast cancer; 24 h) | Selectivity Index (SI), MCF-7 (MCF7 breast cancer; 48 h) | Selectivity Index (SI), MCF-7 (MCF7 breast cancer; 72 h) | Selectivity Index (SI), SW480 (SW480 colon cancer; 48 h) | Selectivity Index (SI), SW480 (SW480 colon cancer; 72 h) | Selectivity Index (SI), SW480 (SW480 colon cancer; 24 h) | IC50 (MCF7 breast cancer; [3]) [µM] | IC50 (MCF7 breast cancer; [4]) [µM] | IC50 (MCF7 breast cancer; [5]) [µM] | melting point [°C] | IC50 (normal L6 rat myoblasts; [6]) [µM] | IC50 (normal L6 rat myoblasts; [7]) [µM] | IC50 (normal L6 rat myoblasts; [8]) [µM] | IC50 (SW480 colon cancer; [9]) [µM] | IC50 (SW480 colon cancer; [10]) [µM] | IC50 (SW480 colon cancer; [11]) [µM] | other results
1,4-bis((dipyrido[2,3-b:2′,3′-e][1,4]thiazin-10-yl)methyl)benzene [3b] | 1.09 | 0.81 | 1.17 | 1.07 | 1.15 |  |  |  |  |  |  |  |  |  |  |  | IC50 (MCF7 breast cancer; 24 h treatment period): 19 ± 1.23 µM; IC50 (MCF7 breast cancer; 48 h treatment period): 28 ± 0.65 µM; IC50 (MCF7 breast cancer; [2]): 18.89 ± 0.15 µM; IC50 (normal L6 rat myoblasts; 24 h treatment period): 20.8 ± 0.28 µM; IC50 (normal L6 rat myoblasts; 48 h treatment period): 22.7 ± 0.29 µM; IC50 (normal L6 rat myoblasts; 72 h treatment period): 22.15 ± 0.22 µM; IC50 (SW480 colon cancer; 24 h treatment period): 24.5 ± 0.26 µM; IC50 (SW480 colon cancer; 48 h treatment period): 21.19 ± 0.14 µM; IC50 (SW480 colon cancer; 72 h treatment period): 19.3 ± 0.12 µM
1,4-bis((dipyrido[2,3-b:2′,3′-e][1,4]thiazin-10-yl)methyl)benzene [4b] | 1.23 | 1.27 | 0.45 | 1.16 | 0.54 | 1.21 |  |  |  |  |  |  |  |  |  |  | IC50 (MCF7 breast cancer; 24 h treatment period): 29.7 ± 1.33 µM; IC50 (MCF7 breast cancer; 48 h treatment period): 24.24 ± 0.17 µM; IC50 (MCF7 breast cancer; [2]): 25.6 ± 0.35 µM; IC50 (normal L6 rat myoblasts; 24 h treatment period): 36.7 ± 1.03 µM; IC50 (normal L6 rat myoblasts; 48 h treatment period): 30.8 ± 0.93 µM; IC50 (normal L6 rat myoblasts; 72 h treatment period): 11.6 ± 0.47 µM; IC50 (SW480 colon cancer; 24 h treatment period): 29.1 ± 0.37 µM; IC50 (SW480 colon cancer; 48 h treatment period): 26.4 ± 0.74 µM; IC50 (SW480 colon cancer; 72 h treatment period): 21.41 ± 0.21 µM
c1ccc(CN2c3cccnc3Sc3cccnc32)c(CN2c3cccnc3Sc3cccnc32)c1 [1a, 1,2-bis((dipyrido[2,3-b:2′,3′-e][1,4]thiazin-10-yl)methyl)benzene] | 2.62 | 2.69 | 2.15 | 0.93 | 0.92 | 0.94 | 7.85 ± 1.67 | 7.12 ± 0.42 | 7.49 ± 1.13 | 265 to 267 | 20.6 ± 0.29 | 19.1 ± 1.08 | 16.1 ± 0.42 | 21.8 ± 0.36 | 20.5 ± 0.79 | 17.5 ± 0.5 | cytotoxicity towards MCF7 compared with SW480 (in words) [1]: higher cytotoxicity
c1cnc2c(c1)Sc1ncccc1N2Cc1ccc(CN2c3cccnc3Sc3cccnc32)cc1 [1b, 1,4-bis((dipyrido[2,3-b:2′,3′-e][1,4]thiazin-10-yl)methyl)benzene] | 1.38 | 0.12 | 1.22 | 0.1 | 0.59 | 0.55 | 11.6 ± 0.15 | 15.9 ± 0.83 | 9.6 ± 0.46 |  | 16 ± 0.36 | 1.92 ± 1.39 | 11.7 ± 0.59 | 28.7 ± 1.28 | 20.7 ± 1.22 | 19.8 ± 1.21 | cytotoxicity towards MCF7 compared with SW480 (in words) [1]: higher cytotoxicity
c1cc(CN2c3ccncc3Sc3ccncc32)nc(CN2c3ccncc3Sc3ccncc32)c1 [3c, 2,6-bis((dipyrido[3,4-b:3′,4′-e][1,4]thiazin-10-yl)methyl)pyridine] | 3.25 | 2.42 | 1.41 | 0.94 | 1.37 | 2.19 | 15 ± 0.73 | 11.7 ± 0.38 | 25.2 ± 1.74 | 245 to 247 | 48.98 ± 0.33 | 28.4 ± 0.37 | 35.53 ± 0.04 | 22.3 ± 0.93 | 28.8 ± 1.55 | 25.9 ± 0.84 | 
c1ccc(CN2c3ccncc3Sc3ncccc32)c(CN2c3ccncc3Sc3ncccc32)c1 [4a, 1,2-bis((dipyrido[2,3-b:4′,3′-e][1,4]thiazin-5-yl)methyl)benzene] | 1.10 | 0.68 | 0.75 | 0.95 | 0.61 | 1.56 | 32.7 ± 2.31 | 33.8 ± 1.46 | 19.9 ± 2.36 | 302 to 303 | 35.9 ± 0.57 | 22.9 ± 1.39 | 14.9 ± 1.15 | 23 ± 1.22 | 24.1 ± 0.66 | 24.4 ± 0.83 | 
COc1cccc2c1C(=O)c1c(O)c3c(c(O)c1C2=O)C[C@@](O)(C(=O)CO)C[C@@H]3O[C@H]1C[C@H](N)[C@H](O)[C@H](C)O1 [Doxorubicin, reference compound] | 0.41 | 0.25 |  | 0.63 | 0.28 | 0.85 | 28.4 ± 0.36 | 24.6 ± 2.37 |  |  | 11.5 ± 0.68 | 6.62 ± 0.18 | 3.07 ± 0.38 | 13.46 ± 0.11 | 10.44 ± 0.1 | 10.77 ± 0.07 | 
